Common to all, as to conditions: at 10 µM
Test [1] deals with T1, Receptor-type tyrosine-protein kinase FLT3 (Homo sapiens), P36888 [K663Q].
T1 sequence (whole entry): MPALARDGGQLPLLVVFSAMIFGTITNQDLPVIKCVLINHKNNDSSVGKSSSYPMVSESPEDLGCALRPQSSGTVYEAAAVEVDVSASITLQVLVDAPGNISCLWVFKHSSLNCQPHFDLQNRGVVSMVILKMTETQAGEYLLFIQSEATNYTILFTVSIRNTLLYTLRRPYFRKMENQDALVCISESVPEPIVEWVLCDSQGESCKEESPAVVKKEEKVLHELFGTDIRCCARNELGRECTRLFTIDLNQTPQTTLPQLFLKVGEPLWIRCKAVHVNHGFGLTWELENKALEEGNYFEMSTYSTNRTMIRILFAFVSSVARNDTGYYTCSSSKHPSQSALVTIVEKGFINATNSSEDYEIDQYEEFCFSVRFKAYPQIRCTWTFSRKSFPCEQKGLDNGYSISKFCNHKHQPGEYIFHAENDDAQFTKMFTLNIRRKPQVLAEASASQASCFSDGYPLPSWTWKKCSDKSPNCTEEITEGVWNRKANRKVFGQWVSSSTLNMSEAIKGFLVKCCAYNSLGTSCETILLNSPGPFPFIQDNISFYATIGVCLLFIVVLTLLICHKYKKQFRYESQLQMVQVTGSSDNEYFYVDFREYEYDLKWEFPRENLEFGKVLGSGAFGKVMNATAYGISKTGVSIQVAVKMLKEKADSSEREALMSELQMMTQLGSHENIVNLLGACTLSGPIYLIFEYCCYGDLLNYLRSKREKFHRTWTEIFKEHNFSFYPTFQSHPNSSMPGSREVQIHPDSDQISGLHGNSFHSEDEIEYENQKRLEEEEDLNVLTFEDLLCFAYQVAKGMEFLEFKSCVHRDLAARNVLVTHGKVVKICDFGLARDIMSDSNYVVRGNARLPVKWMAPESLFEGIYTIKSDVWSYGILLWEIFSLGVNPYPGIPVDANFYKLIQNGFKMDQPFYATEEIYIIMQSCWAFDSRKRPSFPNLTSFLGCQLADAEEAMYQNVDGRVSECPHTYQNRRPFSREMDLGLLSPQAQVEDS
Nature of the test: (§1) Selectivity interaction (KinomeScan (DiscoverX)) EUB0000595a FLT3.

The subject of test [2] is Receptor-type tyrosine-protein kinase FLT3 (Homo sapiens), P36888 [UNDEFINED MUTATION]. The description is as §1.
Test [3] addresses Receptor-type tyrosine-protein kinase FLT3 (Homo sapiens) (UniProt P36888). Described as §1.
Test [4] has as its system T2, Receptor-type tyrosine-protein kinase FLT3 (Homo sapiens), P36888 [N841I].
T2 sequence (whole entry): T1 sequence (whole entry) with Q663K, N841I
Described as §1.

For test [5], the target named is Dual specificity mitogen-activated protein kinase kinase 2 (Homo sapiens) (UniProt P36507).
Chain of Dual specificity mitogen-activated protein kinase kinase 2 (Homo sapiens) (P36507 whole entry): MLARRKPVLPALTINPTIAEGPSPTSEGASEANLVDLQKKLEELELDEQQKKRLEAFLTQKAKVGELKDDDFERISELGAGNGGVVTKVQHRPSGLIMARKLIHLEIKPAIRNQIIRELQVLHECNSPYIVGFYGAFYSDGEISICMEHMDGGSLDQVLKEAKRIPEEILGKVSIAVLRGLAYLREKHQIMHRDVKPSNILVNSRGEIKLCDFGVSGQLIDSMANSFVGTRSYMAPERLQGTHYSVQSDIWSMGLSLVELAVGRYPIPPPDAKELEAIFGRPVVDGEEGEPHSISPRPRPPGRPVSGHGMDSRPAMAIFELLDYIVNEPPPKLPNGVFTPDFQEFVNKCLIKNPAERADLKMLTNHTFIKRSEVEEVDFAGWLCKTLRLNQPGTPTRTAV
Test [6] addresses Serine/threonine-protein kinase 38 (Homo sapiens) (UniProt Q15208). As to the kind of experiment: Selectivity interaction (KinomeScan (DiscoverX)) EUB0000229b STK38.

Substitutions are numbered along the chain they refer to.

Chain of Serine/threonine-protein kinase 38 (Homo sapiens) (Q15208 2-465 limits assumed): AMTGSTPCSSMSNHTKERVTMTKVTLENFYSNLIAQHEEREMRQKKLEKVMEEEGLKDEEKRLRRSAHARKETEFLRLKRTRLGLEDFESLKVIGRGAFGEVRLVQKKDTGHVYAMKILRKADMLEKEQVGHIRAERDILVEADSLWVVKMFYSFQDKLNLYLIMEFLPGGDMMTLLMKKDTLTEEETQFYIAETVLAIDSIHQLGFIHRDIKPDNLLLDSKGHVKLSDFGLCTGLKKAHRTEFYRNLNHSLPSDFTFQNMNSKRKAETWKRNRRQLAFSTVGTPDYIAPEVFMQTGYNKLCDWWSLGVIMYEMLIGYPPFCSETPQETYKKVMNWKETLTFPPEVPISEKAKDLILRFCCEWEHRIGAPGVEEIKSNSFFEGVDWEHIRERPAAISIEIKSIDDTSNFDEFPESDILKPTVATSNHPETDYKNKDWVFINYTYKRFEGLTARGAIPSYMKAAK

Take `COCC(=O)NC/C=C/c1ccc2ncnc(Nc3ccc(Oc4ccc(C)nc4)c(C)c3)c2c1` [CP-724714]: the % of control turned out to be 79% in test [1], 87% in test [2], 100% in test [3] and 79% in test [4].

In test [5], `CCN(CC)CCCCNc1ncc2cc(-c3cc(OC)cc(OC)c3)c(NC(=O)NC(C)(C)C)nc2n1` displayed a % of control of 100%.

In the case of `COc1cc(N(C)c2ccnc3ccc(C(F)(F)F)cc23)cc(OC)c1OC`, the % binding in test [6] was 83%.

For the origin of these results see ChEMBL document CHEMBL5465560, “Selectivity Literature for EUbOPEN Chemogenomic Library” (2024).
